Test results reported in the supplement of paper PMC13380429.
± gives the standard deviation of the averaged measurements.

Tests used:
Details in all cases: 72 h
[1] = test system: Vero E6; experiment: cell viability relative to DMSO; higher = less toxic
[2] = test system: U2OS; experiment: as above
[3] = test system: HepG2; experiment: as above
[4] = test system: Calu-3; experiment: as above
[5] = test system: Caco-2; experiment: as above
[6] = test system: Vero E6; experiment: relative viability EC50 (midpoint between 100% and the lowest measured viability); higher = less toxic
[7] = test system: U2OS; experiment: as above
[8] = test system: HepG2; experiment: as above
[9] = test system: Caco-2; experiment: as above
[10] = test system: Vero E6; experiment: drug sensitivity score (DSS) for viability; higher = more toxic; extreme values may be limits of the assay
[11] = test system: U2OS; experiment: as above
[12] = test system: HepG2; experiment: as above
[13] = test system: Calu-3; experiment: as above
[14] = test system: Caco-2; experiment: as above
[15] = test system: Calu-3; experiment: relative viability EC50 (midpoint between 100% and the lowest measured viability); higher = less toxic

Compound	cell viability ([1]; 1 nM)	cell viability ([1]; 10 nM)	cell viability ([1]; 100 nM)	cell viability ([1]; 1000 nM)	cell viability ([1]; 10000 nM)	cell viability ([2]; 1 nM)	cell viability ([2]; 10 nM)	cell viability ([2]; 100 nM)	cell viability ([2]; 1000 nM)	cell viability ([2]; 10000 nM)	cell viability ([3]; 1 nM)	cell viability ([3]; 10 nM)	cell viability ([3]; 100 nM)	cell viability ([3]; 1000 nM)	cell viability ([3]; 10000 nM)	cell viability ([4]; 1 nM)	cell viability ([4]; 10 nM)	cell viability ([4]; 100 nM)	cell viability ([4]; 1000 nM)	cell viability ([4]; 10000 nM)	cell viability ([5]; 1 nM)	cell viability ([5]; 10 nM)	cell viability ([5]; 100 nM)	cell viability ([5]; 1000 nM)	cell viability ([5]; 10000 nM)	relative viability EC50 [6]	relative viability EC50 [7]	relative viability EC50 [8]	relative viability EC50 [9]	drug sensitivity score [10]	drug sensitivity score [11]	drug sensitivity score [12]	drug sensitivity score [13]	drug sensitivity score [14]	relative viability EC50 [15]
CC#CC(=O)N1CCC[C@H]1c1nc(-c2ccc(C(=O)Nc3ccccn3)cc2)c2c(N)nccn12 [acalabrutinib]	91.4%	99.7%	93.1%	96.7%	98.2%	99.3%	95.6%	105%	95.3%	102%	95.9%	96.7%	95%	103%	102%	99.5%	89.1%	84.2%	67.8%	65.3%	92.1%	101%	99.4%	90.5%	97.8%	> 10 µM	> 10 µM	> 10 µM	> 10 µM	0	0	0	7.3	0	
CCCCCCNC(=O)n1cc(F)c(=O)[nH]c1=O [carmofur]	106%	102%	102%	97.4%	58.8%	98.7%	103%	98.5%	99.5%	54%	100%	98.3%	101%	76.4%	42.5%	95.4%	93.1%	90%	94.8%	83.7%	107%	98.5%	95%	97.8%	61.7%			1.16 µM		2.4	2.4	6.3	0.4	2.2	> 10 µM
O=C(O)CCC(=O)C(=O)O [2-oxoglutaric-acid]	97.8%	104%	98.3%	104%	102%	98.5%	99.5%	95.2%	98.7%	99.3%	97.9%	94.3%	91.4%	98.8%	105%						95.3%	97.7%	95%	94.2%	91.5%	> 10 µM	> 10 µM	> 10 µM	> 10 µM	0	0	0		0	
CCCCCCNC(=O)n1cc(F)c(=O)[nH]c1=O [Carmofur]	104%	99.4%	102%	102%	67.1%	103%	96.5%	102%	94.8%	55.9%	108%	104%	102%	85.5%	63.6%	89.8%	102%	100%	101%	93.8%	106%	92%	94.1%	91.7%	74.1%					1.4	3.1	3.7	0	1.5	> 10 µM
CCCNC(=O)NS(=O)(=O)c1ccc(Cl)cc1 [chlorpropamide]	97.5%	98.2%	102%	103%	104%	97.4%	103%	97.4%	99.9%	93.6%	104%	103%	102%	95.4%	99.8%						92.6%	108%	87.1%	99.1%	95.2%	> 10 µM	> 10 µM	> 10 µM	> 10 µM	0	0	0		0	
O=C(O)c1cc(/N=N/c2ccc(O)c(C(=O)O)c2)ccc1O [olsalazine]						99%	102%	103%	107%	103%						107%	94.3%	94.4%	100%	105%	96.8%	107%	104%	106%	91.9%		> 10 µM		> 10 µM		0		0	0	> 10 µM
Cc1cc(C)cc(C(=O)NOCCCCCC(=O)NO)c1 [LMK-235]	95.3%	102%	96.1%	39.8%	-0.1%	95.9%	91.3%	90.4%	49.3%	1.9%	95.1%	93.3%	79.4%	34.4%	0.3%						107%	86.9%	96.4%	60.3%	0.9%	0.777 µM	0.884 µM	0.441 µM	1.22 µM	12.7	11.6	15.1		10.4	
c1ccc2nc(C3=NCCN3)cnc2c1 [BU-239]											99.2%	104%	112%	104%	101%	101%	106%	95.4%	112%	99.8%	97.1%	101%	102%	102%	100%			> 10 µM	> 10 µM			0	0	0	> 10 µM
COc1cc2c(cc1OC)[C@@H]1Cc3ccc(OC)c(OC)c3CN1CC2 [rotundine]																103%	108%	99.8%	101%	89.2%	102%	98.1%	94.8%	109%	91%				> 10 µM				0	0	> 10 µM
C/C(=N\Nc1nnc2c(n1)[nH]c1c(C)cccc12)c1ccccn1 [VLX600]	101 ± 6%	100.5 ± 0.49%	104 ± 2.5%	21.6 ± 15%	4.95 ± 1.2%	100 ± 3.2%	99.6 ± 9.3%	98.9%	34.3 ± 6.7%	27 ± 0.99%	102 ± 2.3%	107 ± 10%	103 ± 11%	17.9 ± 6%	23.6 ± 1.6%						95.5 ± 6%	101 ± 1.6%	98.1 ± 4.1%	20.2 ± 5.8%	21 ± 2.1%	0.525 µM	0.418 µM	0.319 µM	0.32 µM	14.6 ± 2.2	12.2 ± 1.3	14.85 ± 0.071		14.8 ± 0.35	
O=C(NOCC(O)CO)c1cc(Br)c(F)c(F)c1Nc1ccc(I)cc1F (stereo unspecified)	93.8%	88.6%	76.7%	55.2%	51.3%	103%	94.7%	92.7%	97.6%	67.8%	99.5%	97.9%	46.1%	25.7%	21.3%	94.8%	81.8%	73.3%	62.1%	43.2%	102%	92.3%	73.3%	69.5%	68.7%			0.0645 µM		11.1	1.8	20.9	11.8	9.1	0.102 µM
CC(=O)SCCC(=O)N1[C@H](C)CCC[C@@H]1C(=O)O [methiopril]											109%	99.3%	98.6%	96%	97.2%	99.2%	99.6%	96.8%	97.5%	88.1%	96.1%	103%	93.8%	100%	89.6%			> 10 µM	> 10 µM			0	0.1	0	> 10 µM
CC1(C)CCC(C)(C)c2cc(NC(=O)c3ccc(C(=O)O)cc3)ccc21 [tamibarotene]	101%	101%	100%	91.6%	96.5%	99%	96.1%	90.6%	91.4%	87.7%	110%	98.7%	114%	109%	108%	95.4%	83.6%	73.5%	67.8%	70.1%	98%	100%	95.4%	98.8%	83.8%	> 10 µM	> 10 µM	> 10 µM	> 10 µM	0	0.3	0	10.1	0.4	
C=C1/C(=C\C=C2/CCC[C@]3(C)[C@@H]([C@H](C)OCCC(C)(C)O)CC[C@@H]23)C[C@@H](O)C[C@@H]1O [maxacalcitol]	109%	105%	102%	100%	94.6%	102%	103%	93.5%	91.6%	97.4%	105%	99.3%	98.3%	91.5%	98.5%						91.9%	91.3%	94.1%	87.8%	101%	> 10 µM	> 10 µM	> 10 µM	> 10 µM	0	0	0		0	
COc1ccc(S(=O)(=O)Nc2cccnc2Nc2ccc(O)cc2)cc1 [ABT-751]	102%	98.9%	93.3%	29.8%	27.9%	103%	99.4%	104%	57.5%	26.4%	101%	108%	105%	45.1%	35.2%	108%	87.3%	94%	69.4%	55.8%	100%	89.6%	86.3%	53.7%	42.4%	0.248 µM	0.884 µM	0.521 µM	0.26 µM	14.2	9.2	10	6.2	10.1	
c1ccc2c(Oc3nc(Nc4ccc(N5CCOCC5)cc4)c4ncn(C5CCCCC5)c4n3)cccc2c1 [purmorphamine]	99.2%	96.1%	100%	91.7%	90.1%						97.4%	105%	103%	91.9%	77.8%	92.7%	92.4%	94.3%	106%	74.3%	94.9%	94.2%	89.8%	98.7%	85.9%	> 10 µM		> 10 µM	> 10 µM	0		1.7	0.7	0	
